# Source: patent US20240391948A1, “NOVEL COMPOUND THAT INHIBITS TNF-ALPHA GENERATION AND INFLAMMASOME ACTIVITY AND PREPARATION METHOD THEREFOR” (SHAPERON INC., priority 2021, published 2024)
# Assays:
# Assay type in all cases: cell-based
# [1] = system: U937 cells (human monocytic cell line); assay: BzATP-induced IL-1β secretion inhibition in PMA-differentiated U937 cells; settings: U-937, U937 cells differentiated with PMA, read-out: IL-1β production inhibition grade (IC50)
# Method: (§1) To evaluate anti-inflammatory efficacy, U937 cells (human monocytic cell line) were differentiated into macrophages using PMA (phorbol 12-myristate 13-acetate) and then induced an inflammatory response with Pam2CSK4 (Pam2CysSerLys4) or BzATP (2′(3′)—O-(4-Benzoylbenzoyl)adenosine 5′-triphosphate), the efficacy of taurine-bile acid derivatives in suppressing inflammatory cytokine (IL-1β, TNF-α) production was measured.
# (§2) Using PMA, U937 cells were differentiated into macrophages, and the extent of TNF-α secretion inhibition was measured in an experimental group where taurine-bile acid derivatives was treated, followed by induction of inflammatory response with Pam2CSK4, and in the experimental group in which an inflammatory response was induced with BzATP, the extent to which IL-1β secretion among cytokines was suppressed was measured.
# (§3) The ability of taurine-bile acid derivatives to inhibit cytokine production was expressed in terms of IC50 (μM) values. The standards for TNF α inhibition ability are A: less than 0.5, B: 0.5 to less than 1.0, C: 1.0 to less than 2.0, D: 2.0 or more, and the IL-1β inhibition ability grade standards are A: less than 0.05, B: 0.05 to less than 0.10, C: 0.10 or more and less than 0.20, D: 0.20 or more.
# [2] = system: J774A.1 (Mouse BALB/c monocyte macrophage cell line) cells; assay: LPS+ATP-induced IL-1β secretion inhibition in J774A.1 cells; settings: J774.A1, 1 μM compound, graded compared to taurodeoxycholic acid (positive control), read-out: IL-1β production inhibition grade
# Method: (§4) To evaluate anti-inflammatory efficacy, an inflammatory response was induced in J774A.1 (Mouse BALB/c monocyte macrophage cell line) cells derived from mouse macrophages by LPS (lipopolysaccharide) and LPS+ATP (adenosine triphosphate), and the efficacy of taurine-bile acid derivatives to inhibit the production of inflammatory cytokines (IL-1β, TNF-α) was measured. After treating J774A.1 cells with 1 μM of a taurine-bile acid derivative, the degree to which the secretion of TNF-α among cytokines was suppressed was measured in the experimental group in which an inflammatory response was induced by LPS, and the extent to which IL-1β secretion among cytokines was suppressed was measured in the experimental group in which an inflammatory response was induced with LPS+ATP. The ability of taurine-bile acid derivatives to inhibit cytokine production was graded compared to taurodeoxycholic acid, a positive control. The grading criteria are A: over 100%, B: over 50% and under 100%, C: between 20% and under 50%, and D: under 20%.
# [3] = system: U937 cells (human monocytic cell line); assay: Pam2CSK4-induced TNF-α secretion inhibition in PMA-differentiated U937 cells; settings: U-937, U937 cells differentiated with PMA, read-out: TNF-α production inhibition grade (IC50)
# Method: as §1, §2, §3
# [4] = system: J774A.1 (Mouse BALB/c monocyte macrophage cell line) cells; assay: LPS-induced TNF-α secretion inhibition in J774A.1 cells; settings: J774.A1, 1 μM compound, graded compared to taurodeoxycholic acid (positive control), read-out: TNF-α production inhibition grade
# Method: as §4
Compound,IC50 [1] [nM],inhibition at 1 µM [2] [%],IC50 [3] [nM],inhibition at 1 µM [4] [%]
C[C@H](CCC(=O)N(C)CCS(=O)(=O)O)[C@H]1CC[C@H]2[C@@H]3CC[C@@H]4C[C@H](O)CC[C@]4(C)[C@H]3C[C@H](O)[C@]12C [NC10006],≥ 200,50 to 100,500 to 1000,< 20
C[C@H](CCC(=O)N[C@@H]1CCCC[C@@H]1S(=O)(=O)O)[C@H]1CC[C@H]2[C@@H]3CC[C@@H]4C[C@H](O)CC[C@]4(C)[C@H]3CC[C@]12C [NC10082],< 50,> 100,< 500,> 100
CC[C@H]1[C@@H](O)[C@@H]2[C@H](C[C@H](O)[C@]3(C)[C@@H]([C@H](C)CCC(=O)NC(C)(C)CS(=O)(=O)O)CC[C@@H]23)[C@@]2(C)CC[C@@H](O)C[C@@H]12 [NC50013],< 50,> 100,1000 to 2000,< 20
CC(C)N(CCS(=O)(=O)O)C(=O)CC[C@@H](C)[C@H]1CC[C@H]2[C@@H]3CC[C@@H]4C[C@H](O)CC[C@]4(C)[C@H]3C[C@H](O)[C@]12C [NC10024],50 to 100,> 100,1000 to 2000,< 20
C[C@H](CCC(=O)N[C@@H](C)CS(=O)(=O)O)[C@H]1CC[C@H]2[C@@H]3CC[C@@H]4C[C@H](O)CC[C@]4(C)[C@H]3C[C@H](O)[C@]12C [NC10043],100 to 200,> 100,< 500,< 20
C[C@H](CCC(=O)N[C@@H](Cc1ccccc1)CS(=O)(=O)O)[C@H]1CC[C@H]2[C@@H]3CC[C@@H]4C[C@H](O)CC[C@]4(C)[C@H]3CC[C@]12C [NC10065],100 to 200,> 100,1000 to 2000,< 20
C[C@H](CCC(=O)N[C@@H]1CCCC[C@@H]1S(=O)(=O)O)[C@H]1CC[C@H]2[C@@H]3CC[C@@H]4CC(=O)CC[C@]4(C)[C@H]3CC[C@]12C [NC30026],≥ 200,,< 500,
C[C@H](CCC(=O)N(CCS(=O)(=O)O)Cc1ccccc1)[C@H]1CC[C@H]2[C@@H]3CC[C@@H]4CC(=O)CC[C@]4(C)[C@H]3CC[C@]12C [NC30005],≥ 200,,500 to 1000,
C[C@H](CCC(=O)N(CCS(=O)(=O)O)C1CCOCC1)[C@H]1CC[C@H]2[C@@H]3CC[C@@H]4C[C@H](O)CC[C@]4(C)[C@H]3C[C@H](O)[C@]12C [NC10025],50 to 100,,1000 to 2000,
CC[C@H]1[C@@H](O)[C@@H]2[C@H](C[C@H](O)[C@]3(C)[C@@H]([C@H](C)CCC(=O)N4CCC[C@H](S(=O)(=O)O)C4)CC[C@@H]23)[C@@]2(C)CC[C@@H](O)C[C@@H]12 [NC50009],100 to 200,,1000 to 2000,
CC[C@H]1[C@@H](O)[C@@H]2[C@H](C[C@H](O)[C@]3(C)[C@@H]([C@H](C)CCC(=O)N(CCS(=O)(=O)O)Cc4ccccc4)CC[C@@H]23)[C@@]2(C)CC[C@@H](O)C[C@@H]12 [NC50005],≥ 200,,1000 to 2000,
C[C@H](CCC(=O)N(CCS(=O)(=O)O)Cc1cccnc1)[C@H]1CC[C@H]2[C@@H]3CC[C@@H]4CC(=O)CC[C@]4(C)[C@H]3CC[C@]12C [NC30036],≥ 200,,1000 to 2000,
CC(C)N(CCS(=O)(=O)O)C(=O)CC[C@@H](C)[C@H]1CC[C@H]2[C@@H]3CC[C@@H]4CC(=O)CC[C@]4(C)[C@H]3CC[C@]12C [NC30007],≥ 200,,< 500,
CC[C@H]1[C@@H](O)[C@@H]2[C@H](CC[C@]3(C)[C@@H]([C@H](C)CCC(=O)N(CCS(=O)(=O)O)Cc4ccccc4)CC[C@@H]23)[C@@]2(C)CC[C@@H](O)C[C@@H]12 [NC40005],≥ 200,,≥ 2000,
CC[C@H]1[C@@H](O)[C@@H]2[C@H](C[C@H](O)[C@]3(C)[C@@H]([C@H](C)CCC(=O)N[C@@H](Cc4ccccc4)CS(=O)(=O)O)CC[C@@H]23)[C@@]2(C)CC[C@@H](O)C[C@@H]12 [NC50014],< 50,,500 to 1000,
C[C@H](CCC(=O)N[C@@H](CO)CS(=O)(=O)O)[C@H]1CC[C@H]2[C@@H]3CC[C@@H]4CC(=O)CC[C@]4(C)[C@H]3CC[C@]12C [NC30024],≥ 200,,1000 to 2000,
C[C@H](CCC(=O)N1CCC[C@H]1CS(=O)(=O)O)[C@H]1CC[C@H]2[C@@H]3CC[C@@H]4CC(=O)CC[C@]4(C)[C@H]3CC[C@]12C [NC30021],50 to 100,,500 to 1000,
C[C@H](CCC(=O)N[C@H](CS(=O)(=O)O)c1ccccc1)[C@H]1CC[C@H]2[C@@H]3CC[C@@H]4C[C@H](O)CC[C@]4(C)[C@H]3C[C@H](O)[C@]12C [NC10034],50 to 100,,500 to 1000,
C[C@H](CCC(=O)NCCCO)[C@H]1CC[C@H]2[C@@H]3[C@H](O)C[C@@H]4C[C@H](O)CC[C@]4(C)[C@H]3C[C@H](O)[C@]12C [NC20003],50 to 100,20 to 50,,50 to 100
C[C@H](CCC(=O)N(CCS(=O)(=O)O)c1ccccc1)[C@H]1CC[C@H]2[C@@H]3CC[C@@H]4C[C@H](O)CC[C@]4(C)[C@H]3CC[C@]12C [NC10093],100 to 200,,≥ 2000,
CC[C@H]1[C@@H](O)[C@@H]2[C@H](CC[C@]3(C)[C@@H]([C@H](C)CCC(=O)NCCCO)CC[C@@H]23)[C@@]2(C)CC[C@@H](O)C[C@@H]12 [NC40003],≥ 200,,≥ 2000,
CC[C@H]1[C@@H](O)[C@@H]2[C@H](C[C@H](O)[C@]3(C)[C@@H]([C@H](C)CCC(=O)N4CCC(S(=O)(=O)O)CC4)CC[C@@H]23)[C@@]2(C)CC[C@@H](O)C[C@@H]12 [NC50011],≥ 200,,≥ 2000,
CC[C@H]1[C@@H](O)[C@@H]2[C@H](C[C@H](O)[C@]3(C)[C@@H]([C@H](C)CCC(=O)NCCC(=O)O)CC[C@@H]23)[C@@]2(C)CC[C@@H](O)C[C@@H]12 [NC50002],≥ 200,,≥ 2000,
CC[C@H]1[C@@H](O)[C@@H]2[C@H](C[C@H](O)[C@]3(C)[C@@H]([C@H](C)CCC(=O)NC[C@@H](C)S(=O)(=O)O)CC[C@@H]23)[C@@]2(C)CC[C@@H](O)C[C@@H]12 [NC50023],≥ 200,,≥ 2000,
C[C@H](CCC(=O)N(CCS(=O)(=O)O)Cc1cccnc1)[C@H]1CC[C@H]2[C@@H]3CC[C@@H]4C[C@H](O)CC[C@]4(C)[C@H]3CC[C@]12C [NC10092],50 to 100,,≥ 2000,
CC[C@H]1[C@@H](O)[C@@H]2[C@H](C[C@H](O)[C@]3(C)[C@@H]([C@H](C)CCC(=O)N[C@@H](CS(=O)(=O)O)C(C)C)CC[C@@H]23)[C@@]2(C)CC[C@@H](O)C[C@@H]12 [NC50017],50 to 100,,1000 to 2000,
CC[C@H]1[C@@H](O)[C@@H]2[C@H](CC[C@]3(C)[C@@H]([C@H](C)CCC(=O)N[C@H](CS(=O)(=O)O)C(C)C)CC[C@@H]23)[C@@]2(C)CC[C@@H](O)C[C@@H]12 [NC40016],≥ 200,,500 to 1000,
C[C@H](CCC(=O)NCCCO)[C@H]1CC[C@H]2[C@@H]3CC[C@@H]4C[C@H](O)CC[C@]4(C)[C@H]3C[C@H](O)[C@]12C [NC10021],50 to 100,,1000 to 2000,
C[C@H](CCC(=O)NC1(CS(=O)(=O)O)CC1)[C@H]1CC[C@H]2[C@@H]3CC[C@@H]4CC(=O)CC[C@]4(C)[C@H]3CC[C@]12C [NC30032],≥ 200,,500 to 1000,
CC[C@H]1[C@@H](O)[C@@H]2[C@H](CC[C@]3(C)[C@@H]([C@H](C)CCC(=O)N[C@@H]4CCCC[C@@H]4S(=O)(=O)O)CC[C@@H]23)[C@@]2(C)CC[C@@H](O)C[C@@H]12 [NC40026],50 to 100,,500 to 1000,
